This note sets out measurements from patent US20250073338A1, “CONJUGATE COMPOUNDS AND COMPOSITIONS” (REZUBIO PHARMACEUTICALS CO., LTD, priority 2023, published 2025).

Structures can show the parent of a compound that is named as a salt. Some results are limits rather than exact numbers.

T1 sequence (O14842 whole entry): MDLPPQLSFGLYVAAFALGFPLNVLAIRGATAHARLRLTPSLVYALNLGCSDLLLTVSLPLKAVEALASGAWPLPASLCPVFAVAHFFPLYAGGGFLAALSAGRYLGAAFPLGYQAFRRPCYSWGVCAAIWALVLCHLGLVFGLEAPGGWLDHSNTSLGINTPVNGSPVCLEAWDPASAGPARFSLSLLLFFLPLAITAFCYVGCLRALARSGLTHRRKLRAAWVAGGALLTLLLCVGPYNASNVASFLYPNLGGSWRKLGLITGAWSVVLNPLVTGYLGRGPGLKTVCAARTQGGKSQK

This test has as its target T1, GPR40 (Homo sapiens, UniProt O14842).
T1 construct: expressed in transfected cells
Briefly: IP1 accumulation assay in HEK293 cells stably expressing GPR40. The format is cell-based. Particulars: HEK293 cells stably expressing GPR40, 2 hours at 37° C. The method, then: IP1 accumulation assay was used to evaluate the potency of compounds. HEK293 cells stably expressing GPR40 were cultured in 5% CO2 incubator (ThermoFisher) in maintenance media (Dulbecco's modified Eagle's medium with 4.5 g/L of glucose, 10% fetal bovine serum, 100 μg/mL Hygromycin, and Penicillin (100 U/mL)/Streptomycin (100 μg/mL)) till 100% confluency. Cells were harvested freshly, spun down at 300× g for 5 min, and resuspended in pre-warmed 1× stimulant buffer from Cisbio IP-One HTRF Detection kit (Cisbio). Cell density was adjusted to 2.0×10^6 cells/mL. DMSO was used as blank control and AMG-1638 (CAS #: 1142214-62-7) as positive control. Compounds were prepared at 10 mM in DMSO and 5 nL of 3× serially diluted compounds (10 concentrations) were added to each well of the 384-LDV assay plate (Corning) by using ECHO 550 (Labcyte). Five μL of cells in suspension were transferred into each well by using Multidrop Combi Reagent Dispenser (ThermoFisher). Assay plate was then sealed and incubated at 37° C. for 2 hours. IP-d2 reagent and anti-IP1 reagent were prepared following the manual (Cisbio). Five μL of IP1-d2 and then 5 μL of anti-IP1 antibody was added to each well sequentially. Assay plate was incubated at room temperature for 60 min and then read at 665 nm/615 nm on an Envision plate reader (PerkinElmer). The ratio of values obtained at 665 nm and 615 nm was used for calculation of IP1 accumulation: % Effect=(Ratiosample−Ratioblank)/(RatioAMG-1638−Ratioblank)×100. Dose curve was fitted and EC50 of each compound was calculated by using XLFit.
With `COc1ccc(C(=O)N(CC(C)(C)CCCCCCCCCCCCCCCCCCCC(=O)NCCN(CCCC(=O)NCCN)CCCC(=O)NCCN)c2cccc(C)n2)c(N2CCC(COc3cc([C@@H](CC(=O)O)C4CC4)ccn3)CC2)c1` [Example 8], the EC50 worked out at 0.28 nM. That is a sub-nanomolar value. Molecule `COc1ccc(C(=O)N(CC(C)(C)CCCCCCCCCCCCCCCCCCCCCC(=O)NCC[N+](C)(CC(=O)NCCN)CC(=O)NCCN)c2cccc(C)n2)c(N2CCC(COc3cc([C@@H](CC(=O)O)C4CC4)ccn3)CC2)c1` [Example 11, (S)-2-((2-aminoethyl)amino)-N-(2-((2-aminoethyl)amino)-2-oxoethyl)-N-(2-(24-(2-(4-(((4-(2-carboxy-1-cyclopropylethyl)pyridin-2-yl)oxy)methyl)piperidin-1-yl)-4-methoxy-N-(6-methylpyridin-2-yl)benzamido)-23,23-dimethyltetracosanamido)ethyl)-N-methyl-2-oxoethanaminium trifluoroacetate] returned a concentration giving a half-maximal response (EC50) of 1.34 nM. In the case of `COc1ccc(C(=O)N(CC(C)(C)CCCCCCCCCCCCCCCCCC[N+]2(C)CCN(C)CC2)c2cccc(C)n2)c(N2CCC(COc3cc([C@@H](CC(=O)O)C4CC4)ccn3)CC2)c1` [Example 24], a half-maximal response (EC50) required 1.15 nM. The result for `COc1ccc(C(=O)N(CC(C)(C)CCCCCCCCCCCCCCCCCC(=O)NCCC[N+](C)(C)CCCS(=O)(=O)[O-])c2cccc(C)n2)c(N2CCC(COc3cc([C@@H](CC(=O)O)C4CC4)ccn3)CC2)c1` [Example 36] reads 0.78 nM; that for `COc1ccc(C(=O)N(CC(C)(C)CCCCCCCCCCCCCCCCCCNC(=O)C[N+]23CCN(CC2)CC3)c2cccc(C)n2)c(N2CCC(COc3cc([C@@H](CC(=O)O)C4CC4)ccn3)CC2)c1` [Example 23, (S)-1-(2-((20-(2-(4-(((4-(2-carboxy-1-cyclopropylethyl)pyridin-2-yl)oxy)methyl)piperidin-1-yl)-4-methoxy-N-(6-methylpyridin-2-yl)benzamido)-19,19-dimethylicosyl)amino)-2-oxoethyl)-1,4-diazabicyclo[2.2.2]octan-1-ium trifluoroacetate], 2.8 nM; that for `COc1ccc(C(=O)N(CC(C)(C)CCCCCCCCCCCCCCCCCCCC(=O)NCCC[N+](C)(CC(=O)NCCN)CC(=O)NCCN)c2cccc(C)n2)c(N2CCC(COc3cc([C@@H](CC(=O)O)C4CC4)ccn3)CC2)c1` [Example 6], 0.84 nM. Then `C[C@H](C(=O)O)[C@H](c1ccc2c(c1)O[C@@H](C1CCN(Cc3cc(CCCCCCCCCCCCCCCCCCCC(=O)NCCC[N+](C)(CC(=O)NCCN)CC(=O)NCCN)ccc3OC(F)(F)F)CC1)CC2)C1CC1` [Example 20], with 3.57 nM; and `COc1ccc(C(=O)N(CC(C)(C)CCCCCCCCCCCCCCCCCC(=O)NCCC[N+](C)(CC(=O)[O-])CC(=O)O)c2cccc(C)n2)c(N2CCC(COc3cc([C@@H](CC(=O)O)C4CC4)ccn3)CC2)c1` (stereo partly drawn) [Example 35], with 0.63 nM; and `COc1ccc(C(=O)N(CC(C)(C)CCCCCCCCCCCCCCCCCC(=O)NCCCC[N+]23CCN(CC2)CC3)c2cccc(C)n2)c(N2CCC(COc3cc([C@@H](CC(=O)O)C4CC4)ccn3)CC2)c1` [Example 28], with 0.49 nM.

As for `COc1ccc(C(=O)N(CC(C)(C)CCCCCCCCCCCCCCCCCCCC(=O)NCCCN(CC(=O)NCCN)CC(=O)NCCN)c2cccc(C)n2)c(N2CCC(COc3cc([C@@H](CC(=O)O)C4CC4)ccn3)CC2)c1` [Example 5], the concentration giving a half-maximal response (EC50) is 1.73 nM. This EC50 is about 3.5-fold higher than that of the molecule before.

Consider `COc1ccc(C(=O)N(CC(C)(C)CCn2cc(CCCCCCCCCCCCCCCCCC(=O)O)nn2)c2cccc(C)n2)c(N2CCC(COc3cc([C@@H](CC(=O)O)C4CC4)ccn3)CC2)c1` [Example 33], for which the 50% effective concentration (EC50) is greater than 152 nM. The result for `CCCCNC(=O)CCCCCCCCCCCCCCCCCC(C)(C)CN(C(=O)c1ccc(OC)cc1N1CCC(COc2cc([C@@H](CC(=O)O)C3CC3)ccn2)CC1)c1cccc(C)n1` [Example 32] reads 385 nM; that for `COc1ccc(C(=O)N(CC(C)(C)CCCCCCCCCCCCCCCCCCCC(=O)NCCN(CCC(=O)NCCN)CCC(=O)NCCN)c2cccc(C)n2)c(N2CCC(COc3cc([C@@H](CC(=O)O)C4CC4)ccn3)CC2)c1` [Example 1], 1.23 nM. Then `COc1ccc(C(=O)N(CC(C)(C)CCCCCCCCCCCCCCCCCC(=O)NCc2ccccc2)c2cccc(C)n2)c(N2CCC(COc3cc([C@@H](CC(=O)O)C4CC4)ccn3)CC2)c1` [Example 31], with 163 nM; and `CC[N+](CC)(CC)CCCCNC(=O)CCCCCCCCCCCCCCCCCC(C)(C)CN(C(=O)c1ccc(OC)cc1N1CCC(COc2cc([C@@H](CC(=O)O)C3CC3)ccn2)CC1)c1cccc(C)n1` [Example 30], with 0.43 nM. The molecule `COc1ccc(C(=O)N(CC(C)(C)CCCCCCCCCCCCCCCCCC(=O)NCC[N+](C)(CC(=O)NCCN)CC(=O)NCCN)c2cccc(C)n2)c(N2CCC(COc3cc([C@@H](CC(=O)O)C4CC4)ccn3)CC2)c1` [Example 7] registered an EC50 of 0.53 nM. The result for `COc1ccc(C(=O)N(CC(C)(C)CCCCCCCCCCCCCCCCCCCC(=O)NCC[N+](C)(CCC(=O)NCCN)CCC(=O)NCCN)c2cccc(C)n2)c(N2CCC(COc3cc([C@@H](CC(=O)O)C4CC4)ccn3)CC2)c1` [Example 3] reads 1.79 nM; that for `COc1ccc(C(=O)N(CC(C)(C)CCCCCCCCCCCCCCCCCC[N+]23CCN(CC2)CC3)c2cccc(C)n2)c(N2CCC(COc3cc([C@@H](CC(=O)O)C4CC4)ccn3)CC2)c1` [Example 22], 0.36 nM; that for `COc1ccc(C(=O)N(CC(C)(C)CCCCCCCCCCCCCCCCCC[N+](C)(C)C)c2cccc(C)n2)c(N2CCC(COc3cc([C@@H](CC(=O)O)C4CC4)ccn3)CC2)c1` [Example 25], 0.45 nM. The result for `COc1ccc(C(=O)N(CC(C)(C)CCCCCCCCCCCCCCCCCCCC(=O)NCCC[N+](C)(C)CC(=O)NCCN)c2cccc(C)n2)c(N2CCC(COc3cc([C@@H](CC(=O)O)C4CC4)ccn3)CC2)c1` [Example 16] reads 0.48 nM; that for `CC[N+](CC)(CC)CCCCCCCCCCCCCCCCCCC(C)(C)CN(C(=O)c1ccc(OC)cc1N1CCC(COc2cc([C@@H](CC(=O)O)C3CC3)ccn2)CC1)c1cccc(C)n1` [Example 26], 0.36 nM; that for `COc1ccc(C(=O)N(CC(C)(C)CCCCCCCCCCCCCCCCCC(=O)NCCCC[N+](C)(C)C)c2cccc(C)n2)c(N2CCC(COc3cc([C@@H](CC(=O)O)C4CC4)ccn3)CC2)c1` [Example 29], 0.32 nM. On to `COc1ccc(C(=O)N(CC(C)(C)CCCCCCCCCCCCCCCCCCCCC(=O)NCC[N+](C)(CC(=O)NCCN)CC(=O)NCCN)c2cccc(C)n2)c(N2CCC(COc3cc([C@@H](CC(=O)O)C4CC4)ccn3)CC2)c1` [Example 10], for which the EC50 is 3.65 nM.

For `COc1ccc(C(=O)N(CC(C)(C)CCn2cc(CCCCCCCCCCCCCCCCCC(=O)NCCNC(=O)C(CCCCN(CCCN)CCCN)NCCCN)nn2)c2cccc(C)n2)c(N2CCC(COc3cc([C@@H](CC(=O)O)C4CC4)ccn3)CC2)c1` (stereo partly drawn) [Example 27], the EC50 is 0.71 nM.

`COc1ccc(C(=O)N(CC(C)(C)CCCCCCCCCCCCCCCCCCCC(=O)NCCCN(C)CC(=O)NCCN)c2cccc(C)n2)c(N2CCC(COc3cc([C@@H](CC(=O)O)C4CC4)ccn3)CC2)c1` [Example 15] showed an EC50 of 0.67 nM. The EC50 values of the last two molecules are within 1.5-fold of each other.

Molecule `COc1ccc(C(=O)N(CC(C)(C)CCCCCCCCCCCCCCCCCCCC(=O)NCC[N+](C)(CCCC(=O)NCCN)CCCC(=O)NCCN)c2cccc(C)n2)c(N2CCC(COc3cc([C@@H](CC(=O)O)C4CC4)ccn3)CC2)c1` [Example 9] returned an EC50 of 0.35 nM. The result for `COc1ccc(C(=O)N(CC(C)(C)CCCCCCCCCCCCCCCCCCCC(=O)NCCN(CC(=O)NCCN)CC(=O)NCCN)c2cccc(C)n2)c(N2CCC(COc3cc([C@@H](CC(=O)O)C4CC4)ccn3)CC2)c1` [Example 2] reads 2 nM.
